Data reported in US20260049088A1, “TRICYCLIC HETEROCYCLIC DERIVATIVES, COMPOSITIONS AND USES THEREOF” (Danatlas Pharmaceuticals Co., Ltd., priority 2023, published 2026).
pIC50: −log10 of the molar value.

Molecular target: T1, hPARG (Homo sapiens, UniProt Q86W56)
T1 construct: made in house; host or cells: E. coli
Assay: PARG enzymatic activity assay (HTRF)
Type: biochemical
Details: C-terminal His6-tag hPARG 65 pM, biotinylated-NAD ribosylated PARP1 substrate 8 nM
Protocol: HTRF assay was used to measure the ability of compounds to inhibit the activity of […] in vitro. C-terminal His6—tag PARG expressed in E. coli was purified and stored at −80° C. in aliquots. Assay measurements were performed with 1×buffer comprising 50 mM Tris pH 7.4, 0.1 mg/mL BSA, 3 mM EDTA, 0.4 mM EGTA, 1 mM DTT, 50 mM KCl and 0.01% Tween 20. Compounds dissolved in DMSO were plated into a 384-well assay plate (PerkinElmer, Catalog #: 6008280) in duplicate using a dispenser (Labcyte, Echo 665), and tested on a 10-point 4-fold serial dilution. Add 5 μL Enzyme mix [hPARG (C-terminal His6—tag, 4.2 μM), 65 pM final] to the test wells. The plates were covered and left to incubate for 60 minutes at RT before the addition of 5 μL substrate mix [biotinylated-NAD ribosylated PARP1 (6.1 μM), 8 nM final] to initiate reaction. After incubating 10 minutes at RT, add 2.5 μL Streptavidin-Eu cryptate (Cisbio, Catalog #: 610SAKLA) and 2.5 μL Mab anti 6HIS-XL665 (Cisbio, Catalog #: 61HISXLA) to the plate, and incubate for 60 minutes at RT. Read on a multimode plate reader (PerkinElmer, Envision 2015) in time-resolved fluorescence (TRF) mode, with excitation at 337 nm and emission at both 620 nm and 665 nm. Average HTRF signal of high control (Wells with 1% DMSO) was calculated and as Vehicle Control (VC). Average HTRF signal of low control (no Enzyme) was calculated and as Positive control (PC).
IC50 values were determined by fitting the data to the standard 4 parameters with Hill Slope using GraphPad Prism software.

T1 sequence (Q86W56 whole entry): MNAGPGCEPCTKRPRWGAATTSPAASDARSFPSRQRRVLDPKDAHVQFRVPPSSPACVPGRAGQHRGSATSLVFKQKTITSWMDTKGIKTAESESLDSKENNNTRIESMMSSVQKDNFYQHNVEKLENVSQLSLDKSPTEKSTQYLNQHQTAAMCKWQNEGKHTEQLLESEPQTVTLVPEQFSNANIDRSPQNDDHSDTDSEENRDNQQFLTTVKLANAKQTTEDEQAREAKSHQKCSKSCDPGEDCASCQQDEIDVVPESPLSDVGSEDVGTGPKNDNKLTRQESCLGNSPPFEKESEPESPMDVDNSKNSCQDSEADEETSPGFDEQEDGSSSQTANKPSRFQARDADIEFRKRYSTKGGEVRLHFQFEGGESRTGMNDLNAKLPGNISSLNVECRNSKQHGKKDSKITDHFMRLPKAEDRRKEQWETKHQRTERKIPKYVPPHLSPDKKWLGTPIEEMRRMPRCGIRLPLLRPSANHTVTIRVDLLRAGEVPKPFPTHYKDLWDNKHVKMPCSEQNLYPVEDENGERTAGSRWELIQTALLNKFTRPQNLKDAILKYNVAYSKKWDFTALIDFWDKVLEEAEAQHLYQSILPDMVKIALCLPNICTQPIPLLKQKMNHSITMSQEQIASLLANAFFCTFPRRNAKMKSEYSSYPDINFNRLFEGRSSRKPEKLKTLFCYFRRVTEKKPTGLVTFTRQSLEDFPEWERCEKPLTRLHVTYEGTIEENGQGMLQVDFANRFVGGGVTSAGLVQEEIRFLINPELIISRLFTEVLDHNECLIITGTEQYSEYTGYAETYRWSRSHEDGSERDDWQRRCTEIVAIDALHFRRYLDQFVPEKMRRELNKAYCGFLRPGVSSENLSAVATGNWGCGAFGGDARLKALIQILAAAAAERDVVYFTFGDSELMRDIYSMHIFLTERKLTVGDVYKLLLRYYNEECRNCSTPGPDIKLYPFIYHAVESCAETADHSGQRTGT

SMILES | pIC50
Cc1nc(C)n(CCN(C)c2ncnc3c2c2ccc(S(=O)(=O)NC4(C#N)CC4)cc2n3-c2nnc(C(F)F)s2)n1 [Example 71, N-(1-Cyanocyclopropyl)-9-(5-(difluoromethyl)-1,3,4-thiadiazol-2-yl)-4-((2-(3,5-dimethyl-1H-1,2,4-triazol-1-yl)ethyl)(methyl)amino)-9H-pyrimido[4,5-b]indole-7-sulfonamide] | < 6.00
CN(Cc1ccccn1)c1ncnc2c1c1ccc(S(=O)(=O)NC3(C#N)CC3)cc1n2-c1nnc(C(F)F)s1 [Example 22, N-(1-Cyanocyclopropyl)-9-(5-(difluoromethyl)-1,3,4-thiadiazol-2-yl)-4-(methyl(pyridin-2-ylmethyl)amino)-9H-pyrimido[4,5-b]indole-7-sulfonamide] | 6.00 to 7.00
CN(c1ncnc2c1c1ccc(S(=O)(=O)NC3(C#N)CC3)cc1n2-c1nnc(C(F)F)s1)C1COC1 [Example 58, N-(1-Cyanocyclopropyl)-9-(5-(difluoromethyl)-1,3,4-thiadiazol-2-yl)-4-(methyl(oxetan-3-yl)amino)-9H-pyrimido[4,5-b]indole-7-sulfonamide] | 6.00 to 7.00
CN(C)C(=O)COc1ncnc2c1c1ccc(S(=O)(=O)NC3(C#N)CC3)cc1n2-c1nnc(C(F)F)s1 [Example 6, 2-((7-(N-(1-Cyanocyclopropyl)sulfamoyl)-9-(5-(difluoromethyl)-1,3,4-thiadiazol-2-yl)-9H-pyrimido[4,5-b]indol-4-yl)oxy)-N,N-dimethylacetamide] | 6.00 to 7.00
CCN(CC)[C@@H]1CCN(c2ncnc3c2c2ccc(S(=O)(=O)NC4(C#N)CC4)cc2n3-c2nnc(C(F)F)s2)CC1(F)F [Example 51, (R)-N-(1-Cyanocyclopropyl)-4-(4-(diethylamino)-3,3-difluoropiperidin-1-yl)-9-(5-(difluoromethyl)-1,3,4-thiadiazol-2-yl)-9H-pyrimido[4,5-b]indole-7-sulfonamide] | ≥ 7.00
CCN(CCN1CCOCC1)c1ncnc2c1c1ccc(S(=O)(=O)NC3(C#N)CC3)cc1n2-c1nnc(C(F)F)s1 [Example 18, N-(1-Cyanocyclopropyl)-9-(5-(difluoromethyl)-1,3,4-thiadiazol-2-yl)-4-(ethyl(2-morpholinoethyl)amino)-9H-pyrimido [4,5-b]indole-7-sulfonamide] | ≥ 7.00
C[C@H]1CN(c2ncnc3c2c2ccc(S(=O)(=O)NC4(C#N)CC4)cc2n3-c2nnc(C(F)F)s2)C[C@H](C)N1 [Example 94, N-(1-Cyanocyclopropyl)-9-(5-(difluoromethyl)-1,3,4-thiadiazol-2-yl)-4-((3S,5S)-3,5-dimethylpiperazin-1-yl)-9H-pyrimido[4,5-b]indole-7-sulfonamide] | ≥ 7.00
Cc1nc2n(n1)CCN(c1ncnc3c1c1ccc(S(=O)(=O)NC4(C#N)CC4)cc1n3-c1nnc(C(F)F)s1)C2 [Example 55, N-(1-Cyanocyclopropyl)-9-(5-(difluoromethyl)-1,3,4-thiadiazol-2-yl)-4-(2-methyl-5,6-dihydro-[1,2,4]triazolo[1,5-a]pyrazin-7(8H)-yl)-9H-pyrimido[4,5-b]indole-7-sulfonamide] | ≥ 7.00
CN(CCN1CCCC1=O)c1ncnc2c1c1ccc(S(=O)(=O)NC3(C#N)CC3)cc1n2-c1nnc(C(F)F)s1 [Example 61, N-(1-Cyanocyclopropyl)-9-(5-(difluoromethyl)-1,3,4-thiadiazol-2-yl)-4-(methyl(2-(2-oxopyrrolidin-1-yl)ethyl)amino)-9H-pyrimido[4,5-b]indole-7-sulfonamide] | 6.00 to 7.00
CN(CC1COCCO1)c1ncnc2c1c1ccc(S(=O)(=O)NC3(C#N)CC3)cc1n2-c1nnc(C(F)F)s1 (centres unmarked) [Example 69, 4-(((1,4-Dioxan-2-yl)methyl)(methyl)amino)-N-(1-cyanocyclopropyl)-9-(5-(difluoromethyl)-1,3,4-thiadiazol-2-yl)-9H-pyrimido[4,5-b]indole-7-sulfonamide] | ≥ 7.00
CCN(CC)[C@@H]1CCN(c2ncnc3c2c2ccc(S(=O)(=O)NC4(C#N)CC4)cc2n3-c2nnc(C(F)F)s2)C[C@@H]1OC [Example 50, N-(1-Cyanocyclopropyl)-4-((3S,4R)-4-(diethylamino)-3-methoxypiperidin-1-yl)-9-(5-(difluoromethyl)-1,3,4-thiadiazol-2-yl)-9H-pyrimido[4,5-b]indole-7-sulfonamide] | ≥ 7.00

The remaining lines, values ahead:

pIC50 | SMILES
≥ 7.00 | N#CC1(NS(=O)(=O)c2ccc3c4c(N5CCn6ccnc6C5)ncnc4n(-c4nnc(C(F)F)s4)c3c2)CC1 [Example 44, N-(1-Cyanocyclopropyl)-9-(5-(difluoromethyl)-1,3,4-thiadiazol-2-yl)-4-(5,6-dihydroimidazo[1,2-a]pyrazin-7(8H)-yl)-9H-pyrimido[4,5-b]indole-7-sulfonamide]
≥ 7.00 | CN1CCN(CCN(C)c2ncnc3c2c2ccc(S(=O)(=O)NC4(C#N)CC4)cc2n3-c2nnc(C(F)F)s2)C1=O [Example 60, N-(1-Cyanocyclopropyl)-9-(5-(difluoromethyl)-1,3,4-thiadiazol-2-yl)-4-(methyl(2-(3-methyl-2-oxoimidazolidin-1-yl)ethyl)amino)-9H-pyrimido[4,5-b]indole-7-sulfonamide]
≥ 7.00 | CN(C[C@H]1COCCN1C)c1ncnc2c1c1ccc(S(=O)(=O)NC3(C#N)CC3)cc1n2-c1nnc(C(F)F)s1 [Example 66, (S)-N-(1-Cyanocyclopropyl)-9-(5-(difluoromethyl)-1,3,4-thiadiazol-2-yl)-4-(methyl((4-methylmorpholin-3-yl)methyl)amino)-9H-pyrimido[4,5-b]indole-7-sulfonamide]
≥ 7.00 | CN1CCN(c2ncnc3c2c2ccc(S(=O)(=O)NC4(C#N)CC4)cc2n3-c2nnc(C(F)F)s2)C[C@@H]1CO [Example 43, (R)-N-(1-Cyanocyclopropyl)-9-(5-(difluoromethyl)-1,3,4-thiadiazol-2-yl)-4-(3-(hydroxymethyl)-4-methylpiperazin-1-yl)-9H-pyrimido[4,5-b]indole-7-sulfonamide]
≥ 7.00 | CN(C)CC1CN(c2ncnc3c2c2ccc(S(=O)(=O)NC4(C#N)CC4)cc2n3-c2nnc(C(F)F)s2)CCO1 (centres unmarked) [Example 37, N-(1-Cyanocyclopropyl)-9-(5-(difluoromethyl)-1,3,4-thiadiazol-2-yl)-4-(2-((dimethylamino)methyl)morpholino)-9H-pyrimido[4,5-b]indole-7-sulfonamide]
≥ 7.00 | CCN(CC)[C@@H]1CCN(c2ncnc3c2c2ccc(S(=O)(=O)NC4(C#N)CC4)cc2n3-c2nnc(C(F)F)s2)C[C@@H]1F [Example 33, N-(1-Cyanocyclopropyl)-4-((3S,4R)-4-(diethylamino)-3-fluoropiperidin-1-yl)-9-(5-(difluoromethyl)-1,3,4-thiadiazol-2-yl)-9H-pyrimido[4,5-b]indole-7-sulfonamide]
≥ 7.00 | N#CC1(NS(=O)(=O)c2ccc3c4c(C#CCN5CCOCC5)ncnc4n(-c4nnc(C(F)F)s4)c3c2)CC1 [Example 86, N-(1-Cyanocyclopropyl)-9-(5-(difluoromethyl)-1,3,4-thiadiazol-2-yl)-4-(3-morpholinoprop-1-yn-1-yl)-9H-pyrimido[4,5-b]indole-7-sulfonamide]
≥ 7.00 | CN1CC2CN(c3ncnc4c3c3ccc(S(=O)(=O)NC5(C#N)CC5)cc3n4-c3nnc(C(F)F)s3)CC2C1 (centres unmarked) [Example 29, N-(1-Cyanocyclopropyl)-9-(5-(difluoromethyl)-1,3,4-thiadiazol-2-yl)-4-(5-methylhexahydropyrrolo[3,4-c]pyrrol-2(1H)-yl)-9H-pyrimido[4,5-b]indole-7-sulfonamide]
≥ 7.00 | CN(CC1CCOC1)c1ncnc2c1c1ccc(S(=O)(=O)NC3(C#N)CC3)cc1n2-c1nnc(C(F)F)s1 (centres unmarked) [Example 23, N-(1-Cyanocyclopropyl)-9-(5-(difluoromethyl)-1,3,4-thiadiazol-2-yl)-4-(methyl((tetrahydrofuran-3-yl)methyl)amino)-9H-pyrimido[4,5-b]indole-7-sulfonamide]
≥ 7.00 | N#CC1(NS(=O)(=O)c2ccc3c4c(OCCn5cccn5)ncnc4n(-c4nnc(C(F)F)s4)c3c2)CC1 [Example 12, 4-(2-(1H-Pyrazol-1-yl)ethoxy)-N-(1-cyanocyclopropyl)-9-(5-(difluoromethyl)-1,3,4-thiadiazol-2-yl)-9H-pyrimido[4,5-b]indole-7-sulfonamide]
≥ 7.00 | N#CC1(NS(=O)(=O)c2ccc3c4c(N5CCO[C@@H](CO)C5)ncnc4n(-c4nnc(C(F)F)s4)c3c2)CC1 [Example 42, (R)-N-(1-Cyanocyclopropyl)-9-(5-(difluoromethyl)-1,3,4-thiadiazol-2-yl)-4-(2-(hydroxymethyl)morpholino)-9H-pyrimido[4,5-b]indole-7-sulfonamide]
≥ 7.00 | C[C@@H]1CN(c2ncnc3c2c2ccc(S(=O)(=O)NC4(C#N)CC4)cc2n3-c2nnc(C(F)F)s2)C[C@H](C)N1C [Example 41, N-(1-Cyanocyclopropyl)-9-(5-(difluoromethyl)-1,3,4-thiadiazol-2-yl)-4-((3R,5S)-3,4,5-trimethylpiperazin-1-yl)-9H-pyrimido[4,5-b]indole-7-sulfonamide]
